Source: patent publication US9556232B2, “Anti-angiogenic molecules, nanostructures and uses thereof” (Northwestern University, priority 2013, dated 2017)
“Also recorded” adds a separate entry of the source.

Experiments:
[1] = Critical assembly concentration determination by nile red incorporation; format: physicochemical; conditions: in PBS, nile red blueshift in peak emission
Experimental: Critical Assembly Concentration Determination by Nile Red Incorporation.
MMPA, MMPep, or ScramPA solutions ranging from 100 nM to 200 μM concentration in PBS were made from stock solutions and NR dissolved in ethanol was diluted 200-fold into solutions to a final concentration of 500 nM. Using a NanoLogHJ spectrofluorometer, samples were excited at 550 nm and spectra were obtained between from 580 nm-750 nm. Blueshift was plotted against concentration to determine the critical assembly concentration.

HUVECs [2] = assay: Flow cytometry and confocal microscopy to assess PA binding to HUVECs; format: cell-based, human
Experimental: Flow Cytometry and Confocal Microscopy to Assess PA Binding.
Stock fluorescent PA and peptide solutions were made by dissolving FITC-labeled molecules in PBS at a concentration of 200 μM (assuming peptide content of 90%). Stock fluorescent solutions were then mixed in equal volumes with 1 mM stock solutions of non-fluorescent PA or peptide solution and allowed to sit overnight at room temperature to make working solutions. Subconfluent human umbilical vein endothelial cells (HUVECs) were incubated for 2 hr in starvation media before detaching with 0.05% trypsin/EDTA. Cells were then spun down to remove trypsin/EDTA and were re-suspended in starvation media at 250,000/mL. Working peptide and PA solutions then added to cell suspensions such that the final concentration corresponded to 10 μM non-fluorescent molecule. After incubating at 37° C. for 30 mins, cells were spun down and resuspended in Hank's balanced salt solution (HBSS) twice. Fluorescence signal of each cell was quantified using a LSRFortessa cell analyzer (BD Biosciences). Cells were also plated on poly-d-lysine coated glass coverslips, fixed with 4% paraformaldehyde, and embedded in mounting media for imaging using an AIR laser scanning confocal microscope (Nikon). Machine parameters were kept constant for all samples in both confocal microscopy and flow cytometry experiments.

HUVECs [3] = assay: Assessment of cell adhesion on fibronectin (PicoGreen); format: cell-based, human; conditions: concentration not given
Experimental: Assessment of Cell Adhesion on Fibronectin.
The effect of peptide and PAs on HUVEC adhesion was assessed. Fibronectin from human plasma (Sigma) was dissolved in sterile MilliQ water and was added to tissue culture-treated 96 well plates at 5 μg/cm2, which were then left to dry overnight at room temperature in a sterile laminar flow hood. Coated plates were stored at 4° C. and warmed to 37° C. prior to use. Subconfluent HUVECs were incubated for 2 hr in starvation media (EndoGRO basal media from Millipore supplemented with 0.5% fetal bovine serum and 1× penicillin-streptomycin from Gibco) before detaching with 0.05% trypsin/EDTA. Cells were then spun down to remove trypsin/EDTA and were re-suspended in PBS containing peptide or PA molecules. Cells were incubated in treatment for 30 min at 37° C. and then plated at 15,000 cells/well. After 45 mins, wells were washed once with PBS to detach loosely adhered cells. A PicoGreen assay (Invitrogen) was used to quantify number of cells in each well. Cell counts were normalized to that obtained in wells with no treatment. Statistical analysis was performed in GraphPad Prism software using one-way analysis of variance (ANOVA) with a Bonferroni's Multiple Comparisons post-test comparing all pairs of columns. For all treatment groups, n=4.

HUVECs [4] = assay: Assessment of cell migration on fibronectin (live-cell imaging); format: cell-based, human; conditions: HUVECs on FN-coated glass, bFGF stimulus, 10 μM
Experimental: Assessment of Cell Migration on Fibronectin.
Fibronectin from human plasma was coated onto tissue culture-treated 4-chamber glass-bottom petri dishes (In Vitro Scientific) at 7 μg/cm2 as previously described. Subconfluent HUVECs were incubated for 2 hr in starvation media before detaching with 0.05% trypsin/EDTA. Cells were then spun down to remove trypsin/EDTA, re-suspended in starvation media, and plated onto glass-bottom petri dishes at a concentration of 4000 cells per chamber. After cells attached (approximately 1 hr at 37° C.)., the media was aspirated and replaced with starvation media containing […] basic fibroblast growth factor (bFGF) and 10 μM MMPA, MMPep, or Scram PA. Live-cell imaging was performed on a Nikon BioStation IM at 37° C., and cell migration was quantified manually using a plugin to track the location of the cell nucleus every 30 mins in ImageJ software. ANOVA with a Dunnett's Multiple Comparisons post-test of each treatment condition against control was performed using GraphPad Prism software. For control, MMPA, MMPep, and ScramPA, n=56, 54, 31, and 42 respectively.

HUVECs [5] = assay: Assay of angiogenesis in vitro by tube formation; format: cell-based, human; conditions: HUVECs on matrigel, imaged 5 hrs after addition of treatment
Experimental: Assay of Angiogenesis In Vitro by Tube Formation.
Wells of a 96-well plate were coated with ECMatrix solution, and 5×10^3 HUVECs were plated in triplicate wells in a volume of 50 μL of endothelial growth medium (EGM) containing 0.5% FBS with 50 ng/mL bFGF for 2 hours. MMPA, MMPep, ScramPA treatments at respective dosages were added to the wells for 5 hours. Tube formation was evaluated by phase-contrast microscopy using an Olympus IX-70 microscope (100× magnification) connected to a Diagnostic Instruments Spot RT Camera. Experiments were repeated independently three times.

[6] = system: chicken chorioallantoic membrane (CAM); assay: Characterization of angiogenesis in vivo by CAM assay; conditions: 1 mM in PBS from filter paper circles, embryonic day 5, 21 hrs and 42 hrs
Experimental: Characterization of Angiogenesis In Vivo by CAM Assay.
In vivo assessment of the anti-angiogenic potential of PAs and peptide was performed using the chicken chorioallantoic membrane (CAM). In this well-established CAM assay, angiogenesis of the extraembryonic allantois was measured at several time points after treatment with PAs or peptide. Fertilized chicken eggs (Sunnyside Hatchery) were received and cultured in a temperature controlled, humidified egg incubator. On embryonic day 3, eggs were cracked into 100 mm sterile petri dishes without breaking the yolk sac and were transferred to a water-jacketed humidified CO2 incubator set to 37° C. On embryonic day 5, 5 μL of treatment (PA, peptide, or scrambled PA dissolved in PBS at 1 mM) or control (PBS) solutions were deposited onto autoclaved filter paper circles ¼″ in diameter. Solution-soaked filter paper circles were placed on top of the CAM and digital images were captured using a Nikon stereomicroscope. Vessel density was quantified by counting the number of vessels intersecting the circumference of filter paper circles and is expressed relative to the initial time point. ANOVA with a Dunnett's Multiple Comparisons post-test of each treatment condition against control was performed using GraphPad Prism software. A minimum of n=5 samples was analyzed for each treatment condition at each time point.

MMPep: 15-residue peptide: maspin g-helix sequence plus two residues on either end, EDESTGLEKIEKQLN, synthesized as previously reported [reference compound]
critical aggregation assembly concentration (CAC) [1]: > 200 µM | median FITC intensity per cell (HUVECs [2]; FACS, HUVECs, FITC-labeled molecule mixed with non-fluorescent molecule, 10 μM, 30 mins 37° C.): 2.6 times that of untreated control | cell binding (FACS, HUVEC fluorescence) (HUVECs [2]; HUVECs treated with FITC-labeled PAs and peptide): binds to cells significantly less effectively than PA nanostructures | HUVEC adhesion to FN surface vs untreated controls (HUVECs [3]): do not show this effect; also recorded: unable to improve cell adhesion over untreated controls | cell motility / migration vs PBS control (HUVECs [4]): statistically less migratory (P<0.05); also recorded: significantly decrease cell motility over untreated controls | average cell migration speed (HUVECs [4]; measured over at least 2 hrs and up to 8 hrs): 0.30 μm/min | inhibition of tube formation (HUVECs [5]): slightly effective at greater than 10 μM; also recorded: partially inhibited tube formation at higher concentrations (10 μM) | angiogenesis in CAM (vessels intersecting filter paper circumference, normalized to initial count) vs PBS control [6]: present but is statistically insignificant
